Results taken from US8658801B2, “Pesticides containing a bicyclic bisamide structure” (Syngenta Crop Protection, LLC, priority 2006, dated 2014).

Legend:
[1] = system: Diabrotica balteata (Corn Root Worm); assay: Example B4: Diabrotica balteata, larvicide, feeding/residual contact, preventive; type: in vivo; conditions: 120 h, 5 days incubation, L2 larvae
Experimental: Diabrotica balteata (Corn Root Worm)
(§1) (Larvicide, Feeding/Residual Contact Activity, Preventive)
After drying, the MTP's are infested with larvae (L2)(6-10 per well). After an incubation period of 5 days, samples are checked for larval mortality, antifeedant and growth regulation. In this test, compounds listed in Table P above show good activity. In particular compounds P.1, P.2, P.5, P.6, P.10, P.11, P.12, P.13, P.15, P.16, P.17, P.18, P.19, P.24, P.25, P.27, P.28, P.29, P.30, P.31, P.33, P.34, P.35, P.37, P.38, P.39, P.42, P.43, P.44, P.45, P.46, P.47, P.48, P.49, P.50, P.52, P.53, P.65, P.67, P.68, P.69, P.70, P.71, P.72, P.75, P.78, and P.79 show an activity of over 80% at a concentration of 400 ppm.

[2] = system: Myzus persicae (Green Peach Aphid); assay: Example B6: activity against Myzus persicae, mixed population, systemic/feeding, curative (pea seedling roots); conditions: 144 h, read-out: activity
[3] = system: Heliothis virescens (Tobacco Budworm); assay: Example B2: activity against Heliothis virescens, ovo-larvicide, feeding/contact, curative; type: in vivo; conditions: 96 h, 4 days incubation, eggs 0-24 h old
Experimental: Activity Against Heliothis virescens (Tobacco Budworm)
(Ovo-Larvicide, Feeding/Contact Activity, Curative)
Eggs (0-24 h old) are placed in 24-well microtiter plate on artificial diet and treated with test solutions by pipetting. After an incubation period of 4 days, samples are checked for egg mortality, larval mortality, and growth regulation.

[4] = system: Thrips tabaci (Onion Thrips); assay: Example B7: activity against Thrips tabaci, mixed population, feeding/residual contact, preventive; conditions: 144 h, read-out: activity
[5] = system: Spodoptera littoralis (Egyptian Cotton Leafworm); assay: Example B1: activity against Spodoptera littoralis, larvicide, feeding/residual contact, preventive (cotton leaf discs); type: in vivo; conditions: foliar, 72 h, 3 days after treatment, L1 larvae
Text: Activity Against Spodoptera littoralis (Egyptian Cotton Leafworm)
as §1
The samples are checked for mortality, repellent effect, feeding behaviour, and growth regulation 3 days after treatment. In this test, compounds listed in Table P above show good activity. In particular compounds P.1, P.2, P.3, P.4, P.5, P.6, P.7, P.9, P.10, P.11, P.12, P.13, P.15, P.16, P.17, P.18, P.19, P.20, P.21, P.22, P.23, P.24, P.25, P.26, P.27, P.28, P.29, P.30, P.31, P.32, P.33, P.34, P.35, P.36, P.37, P.38, P.39, P.40, P.41, P.42, P.43, P.44, P.45, P.46, P.47, P.48, P.49, P.50, P.51, P.52, P.53, P.54, P.55, P.56, P.57, P.58, P.59, P.60, P.61, P.63, P.64, P.67, P.68 and P.70 show an activity of over 80% at a concentration of 400 ppm.

[6] = system: Plutella xylostella (Diamond Back Moth); assay: Example B3: Plutella xylostella, larvicide, feeding/residual contact, preventive (artificial diet MTP); type: in vivo; conditions: 120 h, 5 days incubation, L2 larvae
Experimental: Plutella xylostella (Diamond Back Moth)
as §1
24-well microtiter plate (MTP) with artificial diet is treated with test solutions by pipetting. After drying, the MTP's are infested with larvae (L2)(10-15 per well). After an incubation period of 5 days, samples are checked for larval mortality, antifeedant and growth regulation. In this test, compounds listed in Table P above show good activity. In particular compounds P.1, P.2, P.3, P.4, P.5, P.6, P.7, P.9, P.10, P.11, P.12, P.13, P.15, P.16, P.17, P.18, P.19, P.20, P.21, P.22, P.23, P.25, P.26, P.27, P.28, P.29, P.30, P.31, P.32, P.33, P.34, P.35, P.36, P.37, P.38, P.39, P.40, P.41, P.42, P.43, P.44, P.46, P.47, P.48, P.49, P.50, P.51, P.52, P.53, P.54, P.55, P.56, P.57, P.58, P.59, P.60, P.61, P.63, P.64, P.67, P.68, P.69 P.70, P.72, P.74, P.77, P78 and P.79 show an activity of over 80% at a concentration of 400 ppm.

[7] = system: Myzus persicae (Green Peach Aphid); assay: Example B5: activity against Myzus persicae, mixed population, feeding/residual contact, preventive (sunflower leaf discs); conditions: foliar, 144 h, read-out: activity

Measured: pest or weed control at 400 ppm

Cc1cc2cn[nH]c2c(C(=O)NC2(C3CC3)CC2)c1NC(=O)c1cc(Br)nn1-c1ncccc1Cl [P.71, 6-{[5-bromo-2-(3-chloro-pyridin-2-yl)-2H-pyrazole-3-carbonyl]-amino}-5-methyl-1H-indazole-7-carboxylic acid bicyclopropyl-1-ylamide]
> 80%: [1] | [2] | [3] | [4]

COc1cc(C(=O)Nc2c(C#N)cc3cn[nH]c3c2C(=O)NC(C)C)n(-c2ncccc2Cl)n1 [P.55]
not listed: [1]
> 80%: all other assays above

N#Cc1cc2cn[nH]c2c(C(=O)NC2(C3CC3)CC2)c1NC(=O)c1cc(C(F)(F)F)nn1-c1ncccc1Cl [P.26]
> 80%: [5] | [3] | [4] | [6]

Cc1cc2cn[nH]c2c(C(=O)NC(C)C)c1NC(=O)c1cc(Br)nn1-c1ncccc1Cl [P.65, 6-{[5-bromo-2-(3-chloro-pyridin-2-yl)-2H-pyrazole-3-carbonyl]-amino}-5-methyl-1H-indazole-7-carboxylic acid isopropylamide]
> 80%: [1] | [2] | [4]

CCNC(=O)c1c(NC(=O)c2cc(OC)nn2-c2ncccc2Cl)c(Cl)cc2cn[nH]c12 [P.58]
not listed: [1]
> 80%: all other assays above

CC(C)NC(=O)c1c(NC(=O)c2cc(C(F)(F)F)nn2-c2ncccc2Cl)c(Cl)cc2c(Br)n[nH]c12 [P.67]
not listed: [2] | [7]
> 80%: all other assays above

COc1cc(C(=O)Nc2c(Cl)cc3cn[nH]c3c2C(=O)NC(C)(C)CSC)n(-c2ncccc2Cl)n1 [P.57]
not listed: [1]
> 80%: all other assays above

CNC(=O)c1c(NC(=O)c2cc(C(F)(F)F)nn2-c2ncccc2Cl)ccc2cn[nH]c12 [P.6]
> 80%: [1] | [5] | [3] | [6]

CC(C)NC(=O)c1c(NC(=O)c2cc(C(F)(F)F)nn2-c2ncccc2Cl)c(Br)cc2cn[nH]c12 [P.16]
not listed: [2]
> 80%: all other assays above

COc1cc(C(=O)Nc2c(Cl)cc3c(Br)n[nH]c3c2C(=O)NC(C)C)n(-c2ncccc2Cl)n1 [P.63, 3-bromo-5-chloro-6-{[2-(3-chloro-pyridin-2-yl)-5-methoxy-2H-pyrazole-3-carbonyl]-amino}-1H-indazole-7-carboxylic acid isopropylamide]
> 80%: [5] | [3] | [4] | [6]

CC(C)NC(=O)c1c(NC(=O)c2cc(C(F)(F)F)nn2-c2ncccc2Cl)ccc2cn[nH]c12 [P.3]
> 80%: [5] | [3] | [4] | [6]

CC(C)(CS(C)(=O)=O)NC(=O)c1c(NC(=O)c2cc(C(F)(F)F)nn2-c2ncccc2Cl)ccc2cn[nH]c12 [P.9]
> 80%: [5] | [3] | [6] | [7]

COc1cc(C(=O)Nc2c(Br)cc3cn[nH]c3c2C(=O)NCC2CC2)n(-c2ncccc2Cl)n1 [P.36]
not listed: [1] | [4]
> 80%: all other assays above

O=C(NCC1CC1)c1c(NC(=O)c2cc(C(F)(F)F)nn2-c2ncccc2Cl)ccc2cc[nH]c12 [P.2]
not listed: [2] | [4]
> 80%: all other assays above

COc1cc(C(=O)Nc2c(Cl)cc3c(Br)n[nH]c3c2C(=O)NC2(C3CC3)CC2)n(-c2ncccc2Cl)n1 [P.64, 3-bromo-5-chloro-6-{[2-(3-chloro-pyridin-2-yl)-5-methoxy-2H-pyrazole-3-carbonyl]-amino}-1H-indazole-7-carboxylic acid bicyclopropyl-1-ylamide]
> 80%: [5] | [3] | [4] | [6]

CC(C)NC(=O)c1c(NC(=O)c2cc(C(F)(F)F)nn2-c2ncccc2Cl)c(C#N)cc2cn[nH]c12 [P.25]
not listed: [2]
> 80%: all other assays above

CC(C)NC(=O)c1c(NC(=O)c2cc(C(F)(F)F)nn2-c2ncccc2Cl)ccc2cc[nH]c12 [P.1]
> 80%: [1] | [5] | [3] | [6]

O=C(NC1(C2CC2)CC1)c1c(NC(=O)c2cc(C(F)(F)F)nn2-c2ncccc2Cl)c(Cl)cc2c(Br)n[nH]c12 [P.68]
not listed: [2] | [7]
> 80%: all other assays above
